Reference: PubChem BioAssay (NCI)
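Cells were grown in 96-well plates and exposed to each compound for 48 hours at five concentrations; endpoints were interpolated linearly between bracketing concentrations, or set to the highest concentration if not reached. At the GI50, growth is halved. TGI marks complete inhibition of growth.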

Experiments:
Assay in all cases: DTP human tumour cell line panel, 48 h
786-0 renal = tested on: 786-0 renal
A498 renal = tested on: A498 renal
A549 NSCLC = tested on: A549 NSCLC
ACHN renal = tested on: ACHN renal
BT-549 breast = tested on: BT-549 breast
CAKI-1 renal = tested on: CAKI-1 renal
CCRF-CEM leukemia = tested on: CCRF-CEM leukemia
COLO 205 colon = tested on: COLO 205 colon
DU-145 prostate = tested on: DU-145 prostate
EKVX NSCLC = tested on: EKVX NSCLC
HCC-2998 colon = tested on: HCC-2998 colon
HCT-116 colon = tested on: HCT-116 colon
HCT-15 colon = tested on: HCT-15 colon
HL-60(TB) leukemia = tested on: HL-60(TB) leukemia
HOP-62 NSCLC = tested on: HOP-62 NSCLC
HOP-92 NSCLC = tested on: HOP-92 NSCLC
HS 578T breast = tested on: HS 578T breast
HT29 colon = tested on: HT29 colon
IGROV1 ovarian = tested on: IGROV1 ovarian
K-562 leukemia = tested on: K-562 leukemia
KM12 colon = tested on: KM12 colon
M14 melanoma = tested on: M14 melanoma
MCF7 breast = tested on: MCF7 breast
MDA-MB-231 breast = tested on: MDA-MB-231 breast
MDA-MB-435 = tested on: MDA-MB-435
MOLT-4 leukemia = tested on: MOLT-4 leukemia
NCI-H226 lung = tested on: NCI-H226 lung
NCI-H23 lung = tested on: NCI-H23 lung
NCI-H460 lung = tested on: NCI-H460 lung
NCI-H522 lung = tested on: NCI-H522 lung
NCI/ADR-RES ovarian = tested on: NCI/ADR-RES ovarian
OVCAR-3 ovarian = tested on: OVCAR-3 ovarian
OVCAR-4 ovarian = tested on: OVCAR-4 ovarian
OVCAR-5 ovarian = tested on: OVCAR-5 ovarian
OVCAR-8 ovarian = tested on: OVCAR-8 ovarian
PC-3 prostate = tested on: PC-3 prostate
RPMI-8226 leukemia = tested on: RPMI-8226 leukemia
RXF 393 renal = tested on: RXF 393 renal
SF-268 CNS = tested on: SF-268 CNS
SF-295 CNS = tested on: SF-295 CNS
SF-539 CNS = tested on: SF-539 CNS
SK-MEL-2 melanoma = tested on: SK-MEL-2 melanoma
SK-MEL-28 melanoma = tested on: SK-MEL-28 melanoma
SK-MEL-5 melanoma = tested on: SK-MEL-5 melanoma
SK-OV-3 ovarian = tested on: SK-OV-3 ovarian
SN12C renal = tested on: SN12C renal
SNB-19 CNS = tested on: SNB-19 CNS
SNB-75 CNS = tested on: SNB-75 CNS
SR leukemia = tested on: SR leukemia
SW-620 colon = tested on: SW-620 colon
T-47D breast = tested on: T-47D breast
TK-10 renal = tested on: TK-10 renal
U251 CNS = tested on: U251 CNS
UACC-257 melanoma = tested on: UACC-257 melanoma
UACC-62 melanoma = tested on: UACC-62 melanoma
UO-31 renal = tested on: UO-31 renal
LOX IMVI melanoma = tested on: LOX IMVI melanoma
MALME-3M melanoma = tested on: MALME-3M melanoma

## COc1ccc(CCNC(=O)Cc2ccccc2CCO)cc1OC
786-0 renal
  TGI: > 100 µM
A498 renal
  TGI: > 100 µM
A549 NSCLC
  TGI: > 100 µM
ACHN renal
  TGI: > 100 µM
BT-549 breast
  TGI: > 100 µM
CAKI-1 renal
  TGI: > 100 µM
CCRF-CEM leukemia
  TGI: > 100 µM
COLO 205 colon
  TGI: > 100 µM
DU-145 prostate
  TGI: > 100 µM
EKVX NSCLC
  TGI: > 100 µM
HCC-2998 colon
  TGI: > 100 µM
HCT-116 colon
  TGI: > 100 µM
HCT-15 colon
  TGI: > 100 µM
HL-60(TB) leukemia
  TGI: > 100 µM
HOP-62 NSCLC
  TGI: > 100 µM
HOP-92 NSCLC
  TGI: > 100 µM
HS 578T breast
  TGI: > 100 µM
HT29 colon
  TGI: > 100 µM
IGROV1 ovarian
  TGI: > 100 µM
K-562 leukemia
  TGI: > 100 µM
KM12 colon
  TGI: > 100 µM
M14 melanoma
  TGI: > 100 µM
MCF7 breast
  TGI: > 100 µM
MDA-MB-231 breast
  TGI: > 100 µM
MDA-MB-435
  TGI: > 100 µM
MOLT-4 leukemia
  TGI: > 100 µM
NCI-H226 lung
  TGI: > 100 µM
NCI-H23 lung
  TGI: > 100 µM
NCI-H460 lung
  TGI: > 100 µM
NCI-H522 lung
  TGI: > 100 µM
NCI/ADR-RES ovarian
  TGI: > 100 µM
OVCAR-3 ovarian
  TGI: > 100 µM
OVCAR-4 ovarian
  TGI: > 100 µM
OVCAR-5 ovarian
  TGI: > 100 µM
OVCAR-8 ovarian
  TGI: > 100 µM
PC-3 prostate
  TGI: > 100 µM
RPMI-8226 leukemia
  TGI: > 100 µM
RXF 393 renal
  TGI: > 100 µM
SF-268 CNS
  TGI: > 100 µM
SF-295 CNS
  TGI: > 100 µM
SF-539 CNS
  TGI: > 100 µM
SK-MEL-2 melanoma
  TGI: > 100 µM
SK-MEL-28 melanoma
  TGI: > 100 µM
SK-MEL-5 melanoma
  TGI: > 100 µM
SK-OV-3 ovarian
  TGI: > 100 µM
SN12C renal
  TGI: > 100 µM
SNB-19 CNS
  TGI: > 100 µM
SNB-75 CNS
  TGI: > 100 µM
SR leukemia
  TGI: > 100 µM
SW-620 colon
  TGI: > 100 µM
T-47D breast
  TGI: > 100 µM
TK-10 renal
  TGI: > 100 µM
U251 CNS
  TGI: > 100 µM
UACC-257 melanoma
  TGI: > 100 µM
UACC-62 melanoma
  TGI: > 100 µM
UO-31 renal
  TGI: > 100 µM

## CC(C)(C)c1ccc(NC(=O)c2cc(=O)c3ccccc3[nH]2)c(C(C)(C)C)c1O
786-0 renal
  GI50: 3.05 µM
  TGI: 12.1 µM
A498 renal
  GI50: 4.33 µM
  TGI: 19.7 µM
A549 NSCLC
  GI50: 3.23 µM
  TGI: 12.6 µM
ACHN renal
  GI50: 4.13 µM
  TGI: 12.8 µM
BT-549 breast
  GI50: 6.77 µM
  TGI: 19.9 µM
CAKI-1 renal
  GI50: 5.74 µM
  TGI: 19.2 µM
CCRF-CEM leukemia
  GI50: 2.33 µM
  TGI: 8.25 µM
COLO 205 colon
  GI50: 3.8 µM
  TGI: 10.5 µM
DU-145 prostate
  GI50: 10.7 µM
  TGI: 23.5 µM
HCC-2998 colon
  GI50: 3.04 µM
  TGI: 10.4 µM
HCT-116 colon
  GI50: 3.71 µM
  TGI: 13.4 µM
HCT-15 colon
  GI50: 4.32 µM
  TGI: 15.5 µM
HL-60(TB) leukemia
  GI50: 4.27 µM
  TGI: 17.2 µM
HOP-62 NSCLC
  GI50: 12.5 µM
  TGI: 25.3 µM
HOP-92 NSCLC
  GI50: 2.88 µM
  TGI: 12.8 µM
HS 578T breast
  GI50: 6.46 µM
  TGI: 39 µM
HT29 colon
  GI50: 2.21 µM
  TGI: 4.78 µM
IGROV1 ovarian
  GI50: 10.4 µM
  TGI: 22.7 µM
K-562 leukemia
  GI50: 4.37 µM
  TGI: 16.7 µM
KM12 colon
  GI50: 3.13 µM
  TGI: 8.53 µM
LOX IMVI melanoma
  GI50: 3.22 µM
  TGI: 13.1 µM
M14 melanoma
  GI50: 3.81 µM
  TGI: 13.9 µM
MALME-3M melanoma
  GI50: 12.1 µM
  TGI: 26.3 µM
MCF7 breast
  GI50: 3.35 µM
  TGI: 12.9 µM
MDA-MB-231 breast
  GI50: 3.29 µM
  TGI: 13.9 µM
MDA-MB-435
  GI50: 4.92 µM
  TGI: 17.7 µM
MOLT-4 leukemia
  GI50: 2.67 µM
  TGI: 7.59 µM
NCI-H226 lung
  GI50: 13.6 µM
  TGI: 28.9 µM
NCI-H23 lung
  GI50: 3.33 µM
  TGI: 14.1 µM
NCI-H460 lung
  GI50: 3.72 µM
  TGI: 13.9 µM
NCI-H522 lung
  GI50: 8.04 µM
  TGI: 20.8 µM
NCI/ADR-RES ovarian
  GI50: 9.11 µM
  TGI: 24.4 µM
OVCAR-3 ovarian
  GI50: 4.84 µM
  TGI: 15.9 µM
OVCAR-4 ovarian
  GI50: 4.18 µM
  TGI: 15.7 µM
OVCAR-5 ovarian
  GI50: 6.26 µM
  TGI: 18.7 µM
OVCAR-8 ovarian
  GI50: 3.28 µM
  TGI: 12.2 µM
PC-3 prostate
  GI50: 2.6 µM
  TGI: 8.29 µM
RPMI-8226 leukemia
  GI50: 2.89 µM
  TGI: 14.1 µM
RXF 393 renal
  GI50: 2.31 µM
  TGI: 5.16 µM
SF-268 CNS
  GI50: 7.48 µM
  TGI: 22.4 µM
SF-295 CNS
  GI50: 6.25 µM
  TGI: 20.2 µM
SF-539 CNS
  GI50: 13 µM
  TGI: 26.3 µM
SK-MEL-2 melanoma
  GI50: 12.6 µM
  TGI: 26.4 µM
SK-MEL-28 melanoma
  GI50: 12.8 µM
  TGI: 26 µM
SK-MEL-5 melanoma
  GI50: 6.51 µM
  TGI: 19 µM
SK-OV-3 ovarian
  GI50: 13.8 µM
  TGI: 26.8 µM
SN12C renal
  GI50: 9.81 µM
  TGI: 24.4 µM
SNB-19 CNS
  GI50: 13.7 µM
  TGI: 30 µM
SNB-75 CNS
  GI50: 7.4 µM
  TGI: 21.8 µM
SR leukemia
  GI50: 2.13 µM
  TGI: 4.69 µM
SW-620 colon
  GI50: 8.24 µM
  TGI: 27.1 µM
T-47D breast
  GI50: 7.49 µM
  TGI: 21.9 µM
TK-10 renal
  GI50: 14.5 µM
  TGI: 27.9 µM
U251 CNS
  GI50: 3.59 µM
  TGI: 12.9 µM
UACC-257 melanoma
  GI50: 6.35 µM
  TGI: 21.3 µM
UACC-62 melanoma
  GI50: 9.65 µM
  TGI: 22.9 µM
UO-31 renal
  GI50: 5.15 µM
  TGI: 17.5 µM
